Reference: patent US20100168125A1, “INDOLIZINES AND AZA-ANALOG DERIVATIVES THEREOF AS CNS ACTIVE COMPOUNDS” (priority 2007, published 2010)
Where two headings read alike, the source gives them in different places.

Tests used:
human D2long receptor = biological target: T1, human D2long receptor (Homo sapiens, UniProt P14416); assay: radioligand binding with [^3H]spiperone, D2long; details: read-out: Ki D2lo
T1 construct: expressed in transfected cells; host or cells: Chinese hamster ovary (CHO) cells, membranes
Description: (§1) For the determination of binding affinity to the receptors of the dopamine D2 family membranes were established carrying the human D2long, D2short, D3 or D4.4 receptor subtype expressed in Chinese hamster ovary cell lines. In principle, the binding experiments started when incubating an appropriate amount of membrane with the radioligand [^3H]spiperone and the particular test compounds diluted in a wide range of different concentrations from subnanomolar up to micromolar.

5-HT1A receptor = biological target: T2, 5-HT1A receptor (Sus scrofa, UniProt A0A4X1UTF5); assay: radioligand binding, porcine cortical membranes, [^3H]8-OH-DPAT and [^3H]WAY 100635
T2 construct: membrane preparations from porcine cortical material; from tissue; host or cells: porcine cerebral cortex membranes
T2 sequence (A0A4X1UTF5 1-422): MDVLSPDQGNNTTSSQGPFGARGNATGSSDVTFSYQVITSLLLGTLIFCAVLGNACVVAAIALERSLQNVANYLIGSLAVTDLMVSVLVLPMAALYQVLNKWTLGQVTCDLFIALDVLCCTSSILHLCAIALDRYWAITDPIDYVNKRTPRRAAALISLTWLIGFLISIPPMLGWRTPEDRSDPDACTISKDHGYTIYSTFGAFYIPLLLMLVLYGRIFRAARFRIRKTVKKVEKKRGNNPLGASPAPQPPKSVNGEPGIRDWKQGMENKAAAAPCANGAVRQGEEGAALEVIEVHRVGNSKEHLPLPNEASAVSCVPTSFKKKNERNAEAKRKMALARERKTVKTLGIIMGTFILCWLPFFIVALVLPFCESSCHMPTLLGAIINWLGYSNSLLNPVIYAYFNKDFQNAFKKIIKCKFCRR

human D4.4 receptor = biological target: T3, human D4.4 receptor (Homo sapiens, UniProt P21917); assay: radioligand binding with [^3H]spiperone, D4.4
T3 construct: expressed in transfected cells; host or cells: Chinese hamster ovary (CHO) cells, membranes
T3 sequence (P21917 1-419): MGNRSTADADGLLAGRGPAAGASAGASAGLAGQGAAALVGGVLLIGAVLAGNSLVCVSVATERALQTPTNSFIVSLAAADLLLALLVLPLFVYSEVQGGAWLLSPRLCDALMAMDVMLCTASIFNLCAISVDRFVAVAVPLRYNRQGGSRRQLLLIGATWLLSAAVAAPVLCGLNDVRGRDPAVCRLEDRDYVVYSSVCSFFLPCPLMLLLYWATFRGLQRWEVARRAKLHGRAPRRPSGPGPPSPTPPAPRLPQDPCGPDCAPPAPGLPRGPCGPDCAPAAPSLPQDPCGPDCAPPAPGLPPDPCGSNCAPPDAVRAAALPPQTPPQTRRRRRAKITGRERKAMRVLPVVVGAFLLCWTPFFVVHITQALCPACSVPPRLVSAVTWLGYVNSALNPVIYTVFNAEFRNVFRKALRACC
Description: as §1

human D3 receptor = biological target: T4, human D3 receptor (Homo sapiens, UniProt P35462); assay: radioligand binding with [^3H]spiperone, D3
T4 construct: expressed in transfected cells; host or cells: Chinese hamster ovary (CHO) cells, membranes
Description: as §1

5-HT2 receptor = biological target: T5, 5-HT2 receptor (Sus scrofa, UniProt P50129); assay: radioligand binding, porcine cortical membranes, [^3H]ketanserin
T5 construct: membrane preparations from porcine cortical material; from tissue; host or cells: porcine cerebral cortex membranes

human D2short receptor = biological target: T6, human D2short receptor (Homo sapiens, UniProt P14416); assay: radioligand binding with [^3H]spiperone, D2short; details: read-out: Ki D2sh
T6 construct: expressed in transfected cells; host or cells: Chinese hamster ovary (CHO) cells, membranes
Description: as §1

[1] = biological target: dopamine D2short receptor (Homo sapiens, UniProt P14416); assay: [^35S]GTPγS-incorporation assay, intrinsic activity
[2] = [^3H]spiperone, CHO membranes, mean of 2 to 4 experiments
[3] = porcine cortical membranes, [^3H]ketanserin
[4] = ether alkylene linker compounds
[5] = read-out: D2short: [^35S]GTPγS intrinsic activity, % activity of quinpirol

T1 sequence (P14416 whole entry): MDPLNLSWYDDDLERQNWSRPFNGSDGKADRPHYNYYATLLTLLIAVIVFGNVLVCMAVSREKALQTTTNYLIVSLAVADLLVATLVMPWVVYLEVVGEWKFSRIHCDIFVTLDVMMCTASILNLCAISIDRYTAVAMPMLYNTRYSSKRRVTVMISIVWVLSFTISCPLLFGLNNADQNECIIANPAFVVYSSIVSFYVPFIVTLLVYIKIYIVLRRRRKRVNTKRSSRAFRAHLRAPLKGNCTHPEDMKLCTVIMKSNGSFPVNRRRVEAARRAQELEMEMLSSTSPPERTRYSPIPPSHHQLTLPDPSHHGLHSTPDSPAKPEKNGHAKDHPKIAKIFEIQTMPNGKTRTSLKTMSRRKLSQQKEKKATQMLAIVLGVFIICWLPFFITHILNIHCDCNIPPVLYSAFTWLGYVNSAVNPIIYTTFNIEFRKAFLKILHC
T5 sequence (P50129 whole entry): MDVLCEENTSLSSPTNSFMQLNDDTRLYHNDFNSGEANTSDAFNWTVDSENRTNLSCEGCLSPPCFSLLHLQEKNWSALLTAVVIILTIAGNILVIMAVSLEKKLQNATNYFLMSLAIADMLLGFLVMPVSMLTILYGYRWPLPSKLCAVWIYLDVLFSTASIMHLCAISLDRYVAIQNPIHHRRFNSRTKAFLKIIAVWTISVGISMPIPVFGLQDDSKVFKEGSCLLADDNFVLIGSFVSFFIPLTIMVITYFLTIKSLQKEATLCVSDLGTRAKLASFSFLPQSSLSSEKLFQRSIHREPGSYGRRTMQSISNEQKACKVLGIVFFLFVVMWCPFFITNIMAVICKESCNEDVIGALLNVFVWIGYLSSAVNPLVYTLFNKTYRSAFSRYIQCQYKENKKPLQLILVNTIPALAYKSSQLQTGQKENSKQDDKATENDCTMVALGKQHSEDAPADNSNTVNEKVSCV
T4 sequence (P35462 whole entry): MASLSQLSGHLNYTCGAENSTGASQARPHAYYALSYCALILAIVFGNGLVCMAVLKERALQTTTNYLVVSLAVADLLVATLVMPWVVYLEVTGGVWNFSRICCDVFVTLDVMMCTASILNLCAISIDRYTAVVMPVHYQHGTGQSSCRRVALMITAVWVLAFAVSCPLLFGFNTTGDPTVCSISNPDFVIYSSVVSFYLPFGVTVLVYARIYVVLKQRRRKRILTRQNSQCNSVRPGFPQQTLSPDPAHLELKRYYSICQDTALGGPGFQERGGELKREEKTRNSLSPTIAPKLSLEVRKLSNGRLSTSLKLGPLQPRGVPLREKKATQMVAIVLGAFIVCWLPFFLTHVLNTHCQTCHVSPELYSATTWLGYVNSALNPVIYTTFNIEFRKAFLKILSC
T6 sequence (P14416 1-414 isoform P14416-2): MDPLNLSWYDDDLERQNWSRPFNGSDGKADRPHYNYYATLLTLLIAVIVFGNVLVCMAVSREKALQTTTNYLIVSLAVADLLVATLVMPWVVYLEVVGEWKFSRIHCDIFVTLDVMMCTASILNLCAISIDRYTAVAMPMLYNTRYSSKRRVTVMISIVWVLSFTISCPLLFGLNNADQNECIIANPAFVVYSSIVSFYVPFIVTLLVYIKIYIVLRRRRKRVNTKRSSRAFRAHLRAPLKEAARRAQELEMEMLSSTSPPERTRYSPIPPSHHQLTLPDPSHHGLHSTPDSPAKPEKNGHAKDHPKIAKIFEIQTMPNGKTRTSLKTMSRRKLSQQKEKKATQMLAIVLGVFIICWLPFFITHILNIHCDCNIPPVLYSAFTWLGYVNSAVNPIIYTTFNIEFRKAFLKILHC
Chain of dopamine D2short receptor (P14416 1-414 isoform P14416-2): as above

| SMILES | Ki (human D2long receptor; [2]) [µM] | Ki (5-HT1A receptor; porcine cortical membranes) [µM] | Ki (human D4.4 receptor; [2]) [µM] | Ki (human D3 receptor; [2]) [µM] | Ki (5-HT2 receptor; [3]) [µM] | Ki (human D2short receptor; [2]) [µM] | melting point [°C] | Emax ([1]; read-out: D2short: [^35S]GTPγS intrinsic activity) [%] | Ki (human D2long receptor; [4]) [µM] | Ki (5-HT1A receptor; [4]) [µM] | Ki (human D4.4 receptor; [4]) [µM] | Ki (human D3 receptor; [4]) [µM] | ratio D2lo/D3 (human D3 receptor; ratio of Ki values) | Emax [1, 5] [%] | Ki (5-HT2 receptor; [4]) [µM] | Ki (human D2short receptor; [4]) [µM] |
| --- | --- | --- | --- | --- | --- | --- | --- | --- | --- | --- | --- | --- | --- | --- | --- | --- |
| Clc1cccc(N2CCN(CCCCOc3ccn4nnnc4c3)CC2)c1Cl [Example E63, 7-[4-[4-(2,3-Dichlorophenyl)piperazin-1-yl]butoxy]tetrazolo[1,5-a]pyridine] | < 0.03 | 0.03 to 0.3 | < 0.03 | < 0.03 | 0.03 to 0.3 | < 0.03 | 138 |  |  |  |  |  |  |  |  |  |
| Clc1ccccc1N1CCN(CCCCOc2ccn3ncc(I)c3c2)CC1 [Example E50, 5-[4-[4-(2-Chlorophenyl)piperazin-1-yl]butoxy]-3-iodo-pyrazolo[1,5-a]pyridine] |  | 0.03 to 0.3 |  |  | 0.301 to 3 |  | 94 |  |  |  |  |  |  |  |  |  |
| Clc1ccccc1N1CCN(CCCCOc2ccn3ncc(Br)c3c2)CC1 [Example E44, 3-Bromo-5-[4-[4-(2-chlorophenyl)piperazin-1-yl]butoxy]pyrazolo[1,5-a]pyridine] |  |  |  |  |  |  | 84 | 15 to 40 |  |  |  |  |  |  |  |  |
| COc1ccccc1N1CCN(CCCCOc2ccn3nnnc3c2)CC1 [Example E97, 7-[4-[4-(2-Methoxyphenyl)piperazin-1-yl]butoxy]tetrazolo[1,5-a]pyridine] | < 0.03 | < 0.03 | < 0.03 | < 0.03 | > 3 | < 0.03 | 124 |  |  |  |  |  |  |  |  |  |
| O=[N+]([O-])c1cccc(N2CCN(CCCCOc3ccn4nccc4c3)CC2)c1 [Example E65, 5-[4-[4-(3-Nitrophenyl)piperazin-1-yl]butoxy]pyrazolo[1,5-a]pyridine] |  |  |  |  |  |  | 73 |  |  |  |  |  |  |  |  |  |
| COc1ccccc1N1CCN(CCCCOc2cc3ccccn3n2)CC1 [Example E2, 2-[4-[4-(2-Methoxyphenyl)piperazin-1-yl]butoxy]pyrazolo[1,5-a]pyridine] | < 0.03 | < 0.03 | < 0.03 | < 0.03 | 0.301 to 3 | < 0.03 |  |  | 0.01 | 0.0013 | 0.017 | 0.012 | 0.83 | < 15 | 0.91 | 0.016 |
| COc1ccccc1N1CCN(CCCCOc2ccn3ncc(CN)c3c2)CC1 [Example E78, 3-Aminomethyl-5-[4-[4-(2-methoxyphenyl)piperazin-1-yl]butoxy]pyrazolo[1,5-a]pyridine] | < 0.03 | < 0.03 | < 0.03 | < 0.03 | 0.301 to 3 | < 0.03 |  |  |  |  |  |  |  | 15 to 40 |  |  |
| Nc1cccc(N2CCN(CCCCOc3ccn4nccc4c3)CC2)c1 [Example E66, 5-[4-[4-(3-Aminophenyl)piperazin-1-yl]butoxy]pyrazolo[1,5-a]pyridine] |  |  |  |  |  |  | 86 |  |  |  |  |  |  |  |  |  |
| COc1ccccc1N1CCN(CCCCOc2ccn3ncc(CNC(C)=O)c3c2)CC1 [Example E81] | < 0.03 | < 0.03 | 0.03 to 0.3 | < 0.03 | 0.301 to 3 | < 0.03 |  |  |  |  |  |  |  | < 15 |  |  |
| Clc1ccccc1N1CCN(CCCCOc2ccn3nnnc3c2)CC1 [Example E98, 7-[4-[4-(2-Chlorophenyl)piperazin-1-yl]butoxy]tetrazolo[1,5-a]pyridine] | < 0.03 | < 0.03 | < 0.03 | < 0.03 | 0.301 to 3 | < 0.03 | 101 |  |  |  |  |  |  |  |  |  |
| COc1ccccc1N1CCN(CCCCOc2cccc3ccnn23)CC1 [Example E58, 7-[4-[4-(2-Methoxyphenyl)piperazin-1-yl]butoxy]pyrazolo[1,5-a]pyridine] | 0.03 to 0.3 | < 0.03 | < 0.03 | 0.03 to 0.3 | 0.301 to 3 | 0.03 to 0.3 |  |  |  |  |  |  |  | 15 to 40 |  |  |
| COc1ccccc1N1CCN(CCCCOc2ccn3ncc(C)c3c2)CC1 [Example E75, 5-[4-[4-(2-Methoxyphenyl)piperazin-1-yl]butoxy]-3-methylpyrazolo[1,5-a]pyridine] | < 0.03 | < 0.03 | < 0.03 | < 0.03 | 0.301 to 3 | < 0.03 |  |  |  |  |  |  |  | < 15 |  |  |
